Experimental data: patent US20200165291A1, “NEUROACTIVE STEROIDS, COMPOSITIONS, AND USES THEREOF” (Sage Therapeutics, Inc., priority 2014, published 2020)

How the values were obtained:
[1] = test system: PTZ-treated male CD-1 mice; assay: Acute PTZ (pentylenetetrazol-induced seizure) method in mice; assay type: in vivo; settings: Mus musculus, PO (oral administration), latency to tonic seizures, read-out: Anticonvulsive Effect Dose (minimal effective anticonvulsant dose)
Method: The anticonvulsant effect of test compounds were assessed in the pentylenetetazol-induced seizure assay in mice similar to methods described in Giardina & Gasior (2009) Curr Protoc Pharmacol., Chapter 5. Male CD-1 mice were housed in groups of five under controlled conditions (temperature of 22±2° C. and 12:12 light-dark cycle, lights on at 8:00 am) and water and food were available ad libitum. The mice were housed for 1 week prior to behavioral testing, at which time they weighed 25-35 g. Pentylenetetrazol (PTZ, Sigma) was dissolved in sterile 0.9% saline at a concentration of 12 mg/mL concentration for subcutaneous administration. Test compounds were formulated and administered via oral gavage or intraperitoneal injection at a predetermined time-point (typically 30 or 60 minutes) prior to PTZ injection. All solutions were made fresh and were given in a volume of 10 ml/kg body weight.
Mice were acclimated to the test room for at least 30 min before compound administration. Mice were randomized into at least four test groups (vehicle and at least three doses of the test compound) with 10 mice per group. […] Following the drug pretreatment time the mice were injected s.c. with PTZ (120 mg/kg). Immediately following the PTZ injection, mice were individually placed into observation chambers (25×15×15 cm) and a three-channel timer was started. Each mouse was continuously observed for 30 min and the following behaviors were recorded by observers blinded to the treatments: 1) latency to clonic convulsions that persist for 3 sec and followed by an absence of righting reflex 2) latency to tonic convulsions, characterized by the rigid extension of all four limbs that exceeded a 90 degree angle with the body 3) latency to death 4) number of clonic and tonic convulsions. Data are presented as mean±S.E.M and one-way analysis of variance with Dunnett's or Bonferroni's post-hoc test was used to detect significant differences in latency and number between the vehicle and dose group. p values<0.05 were regarded as statistically significant.

[2] = biological target: T1, recombinant α4β3δ GABAA receptors (Homo sapiens, UniProt P28472+P48169); assay: Patch clamp electrophysiology, manual patch, CHO cells; assay type: cell-based; settings: 10 μM test article, GABA EC20 = 2 μM, read-out: GABA (α4β3δ) Manual patch in CHO, % efficacy at 10 μM
T1 construct: expressed in transfected cells; host or cells: CHO cells (transient transfection, Lipofectamine)

[3] = biological target: T2, recombinant α1β2γ2 GABAA receptors (Homo sapiens, UniProt P14867+P47870); assay: Patch clamp electrophysiology, QPatch, LTK cells; assay type: cell-based; settings: 10 μM test article, GABA EC20 = 2 μM, read-out: GABA (α1β2γ2) Qpatch in Ltk, % efficacy at 10 μM
T2 construct: expressed in transfected cells

[4] = test system: male Sprague Dawley rats; assay: Loss of righting reflex in rats; assay type: in vivo; settings: Rat IV, 5 mpk
Method: Loss of Righting Reflex in Rats
The plasma pharmacokinetics and a qualitative assessment of sedation were obtained in male Sprague Dawley rats according to the following procedure. Rats were dosed by intravenous bolus dose (60 seconds) via the foot dorsal vein at doses ranging from 5 to 15 mg/kg in an appropriate vehicle. In order to assess sedation, rats were gently restrained by hand to a lateral position for dose administration. […] If the animal was unable to return to an upright position, the time was recorded as the onset of loss of righting reflex (LRR). […] Sluggish or incomplete righting twice consecutively within a 30 second interval qualifies as a loss of righting reflex. After onset of LRR, animals were assessed every 5 minutes in the same manner. Recovery of righting reflex is defined as the ability of a rat to right itself completely within 20 seconds of being placed in dorsal recumbency. The duration of LRR is defined as the time interval between LRR and the return of righting reflex.

[5] = biological target: [35S]-TBPS binding, rat brain cortical membranes (GABA receptor complex); assay: [35S]-TBPS binding (steroid inhibition of TBPS binding); settings: in the presence of 5 μM GABA, read-out: 35S-TBPS Radioligand Displacement
Method: [35S]-t-Butylbicyclophosphorothionate (TBPS) binding assays using rat brain cortical membranes in the presence of 5 μM GABA has been described (Gee et al, J. Pharmacol. Exp. Ther. 1987, 241, 346-353; Hawkinson et al, Mol. Pharmacol. 1994, 46, 977-985; Lewin, A. H et al., Mol. Pharmacol. 1989, 35, 189-194).
Briefly, cortices are rapidly removed following decapitation of carbon dioxide-anesthetized Sprague-Dawley rats (200-250 g). The cortices are homogenized in 10 volumes of ice-cold 0.32 M sucrose using a glass/teflon homogenizer and centrifuged at 1500×g for 10 min at 4° C. The resultant supernatants are centrifuged at 10,000×g for 20 min at 4° C. to obtain the P2 pellets. The P2 pellets are resuspended in 200 mM NaCl/50 mM Na-K phosphate pH 7.4 buffer and centrifuged at 10,000×g for 10 min at 4° C. This washing procedure is repeated twice and the pellets are resuspended in 10 volumes of buffer. Aliquots (100 μL) of the membrane suspensions are incubated with 3 nM [^35S]-TBPS and 5 μL aliquots of test drug dissolved in dimethyl sulfoxide (DMSO) (final 0.5%) in the presence of 5 μM GABA. The incubation is brought to a final volume of 1.0 mL with buffer. Nonspecific binding is determined in the presence of 2 μM unlabeled TBPS and ranged from 15 to 25%. Following a 90 min incubation at room temp, the assays are terminated by filtration through glass fiber filters (Schleicher and Schuell No. 32) using a cell harvester (Brandel) and rinsed three times with ice-cold buffer. Filter bound radioactivity is measured by liquid scintillation spectrometry. Non-linear curve fitting of the overall data for each drug averaged for each concentration is done using Prism (GraphPad). […] The concentration of test compound producing 50% inhibition (IC50) of specific binding and the maximal extent of inhibition (Imax) are determined for the individual experiments with the same model used for the overall data and then the means±SEM.s of the individual experiments are calculated.
Various compounds are or can be screened to determine their potential as modulators of [^35S]-TBPS binding in vitro. These assays are or can be performed in accordance with the above discussed procedures.

T2 sequence (P14867 28-456): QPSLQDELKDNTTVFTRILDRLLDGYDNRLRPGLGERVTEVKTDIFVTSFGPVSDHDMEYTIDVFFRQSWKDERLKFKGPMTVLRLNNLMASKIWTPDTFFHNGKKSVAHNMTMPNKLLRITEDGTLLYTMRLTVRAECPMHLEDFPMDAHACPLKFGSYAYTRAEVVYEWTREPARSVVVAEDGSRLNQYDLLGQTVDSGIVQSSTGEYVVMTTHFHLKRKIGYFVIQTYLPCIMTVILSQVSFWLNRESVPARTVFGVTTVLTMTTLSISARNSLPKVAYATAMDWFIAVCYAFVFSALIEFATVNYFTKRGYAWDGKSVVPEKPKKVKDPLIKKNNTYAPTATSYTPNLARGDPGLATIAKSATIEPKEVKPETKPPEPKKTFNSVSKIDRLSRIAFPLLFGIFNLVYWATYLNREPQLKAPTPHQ
T2 sequence (P47870 25-512 limits assumed): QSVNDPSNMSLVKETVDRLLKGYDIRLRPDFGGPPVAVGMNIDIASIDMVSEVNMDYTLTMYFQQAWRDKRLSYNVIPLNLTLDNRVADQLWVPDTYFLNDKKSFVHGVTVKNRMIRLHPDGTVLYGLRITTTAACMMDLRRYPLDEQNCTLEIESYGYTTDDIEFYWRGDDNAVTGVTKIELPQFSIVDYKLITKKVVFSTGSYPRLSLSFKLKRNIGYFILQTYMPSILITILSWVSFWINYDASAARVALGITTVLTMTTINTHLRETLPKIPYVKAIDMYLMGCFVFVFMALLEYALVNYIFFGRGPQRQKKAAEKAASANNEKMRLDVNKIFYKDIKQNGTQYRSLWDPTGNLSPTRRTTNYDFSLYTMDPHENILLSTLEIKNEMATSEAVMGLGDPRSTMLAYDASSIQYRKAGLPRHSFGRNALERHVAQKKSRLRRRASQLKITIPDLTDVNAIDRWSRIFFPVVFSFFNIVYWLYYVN
T2 sequence (P18507 40-475 partner): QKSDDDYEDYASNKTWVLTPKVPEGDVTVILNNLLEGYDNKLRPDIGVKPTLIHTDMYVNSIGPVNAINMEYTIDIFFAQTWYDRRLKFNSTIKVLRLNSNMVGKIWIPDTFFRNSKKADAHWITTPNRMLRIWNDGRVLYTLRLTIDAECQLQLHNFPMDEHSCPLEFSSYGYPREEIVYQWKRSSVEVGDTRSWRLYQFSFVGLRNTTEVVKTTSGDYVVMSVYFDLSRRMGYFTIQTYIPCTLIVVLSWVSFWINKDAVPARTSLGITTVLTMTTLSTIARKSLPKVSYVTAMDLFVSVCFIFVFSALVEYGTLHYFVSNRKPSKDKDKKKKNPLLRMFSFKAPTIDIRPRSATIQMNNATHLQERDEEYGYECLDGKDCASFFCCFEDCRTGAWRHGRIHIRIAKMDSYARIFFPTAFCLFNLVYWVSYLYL
T1 sequence (P48169 36-554): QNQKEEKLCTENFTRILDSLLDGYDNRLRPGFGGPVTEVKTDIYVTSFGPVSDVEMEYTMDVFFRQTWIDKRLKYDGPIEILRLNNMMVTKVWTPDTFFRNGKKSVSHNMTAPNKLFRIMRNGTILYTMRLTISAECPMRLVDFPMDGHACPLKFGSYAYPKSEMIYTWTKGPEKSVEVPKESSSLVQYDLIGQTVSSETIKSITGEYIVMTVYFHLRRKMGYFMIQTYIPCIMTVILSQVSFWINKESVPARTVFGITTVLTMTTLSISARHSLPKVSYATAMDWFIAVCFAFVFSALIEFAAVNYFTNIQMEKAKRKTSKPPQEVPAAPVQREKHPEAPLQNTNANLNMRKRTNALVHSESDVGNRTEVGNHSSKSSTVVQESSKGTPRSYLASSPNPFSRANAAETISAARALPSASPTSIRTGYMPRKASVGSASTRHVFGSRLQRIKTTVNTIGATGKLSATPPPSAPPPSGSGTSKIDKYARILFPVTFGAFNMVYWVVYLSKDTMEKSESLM
T1 sequence (P28472 26-473): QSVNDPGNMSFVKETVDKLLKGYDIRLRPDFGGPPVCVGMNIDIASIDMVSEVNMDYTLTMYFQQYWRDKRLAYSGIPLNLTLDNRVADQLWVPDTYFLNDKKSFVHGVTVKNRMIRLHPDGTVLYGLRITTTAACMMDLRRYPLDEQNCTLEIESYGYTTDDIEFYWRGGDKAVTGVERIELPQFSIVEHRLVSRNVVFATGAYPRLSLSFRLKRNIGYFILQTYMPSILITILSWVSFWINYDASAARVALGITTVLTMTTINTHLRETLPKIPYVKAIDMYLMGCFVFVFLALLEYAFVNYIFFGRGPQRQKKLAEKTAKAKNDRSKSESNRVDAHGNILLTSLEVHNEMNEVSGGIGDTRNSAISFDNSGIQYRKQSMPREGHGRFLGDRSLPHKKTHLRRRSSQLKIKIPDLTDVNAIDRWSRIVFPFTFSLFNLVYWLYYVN
T1 sequence (O14764 17-452 partner limits assumed): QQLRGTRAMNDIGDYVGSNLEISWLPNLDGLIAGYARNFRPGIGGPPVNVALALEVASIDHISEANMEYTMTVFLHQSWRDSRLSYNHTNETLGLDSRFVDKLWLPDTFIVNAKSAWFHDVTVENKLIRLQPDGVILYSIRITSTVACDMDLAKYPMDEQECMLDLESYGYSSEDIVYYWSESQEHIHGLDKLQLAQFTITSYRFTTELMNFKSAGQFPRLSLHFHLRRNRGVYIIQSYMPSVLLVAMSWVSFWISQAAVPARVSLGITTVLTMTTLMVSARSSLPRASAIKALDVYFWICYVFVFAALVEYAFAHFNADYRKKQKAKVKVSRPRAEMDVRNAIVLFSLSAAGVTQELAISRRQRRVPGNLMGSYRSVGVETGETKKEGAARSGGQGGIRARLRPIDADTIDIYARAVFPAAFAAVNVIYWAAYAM

Structure (SMILES) | minimal effective dose [1] [mg/kg] | Emax at 10 µM [2] [%] | Emax at 10 µM [3] [%] | Duration of Rat LRR [4] | IC50 [5] [nM]
C[C@@]1(O)CC[C@@H]2[C@H]3CC[C@]4(C)[C@@H](C(=O)Cn5nccn5)CC[C@H]4[C@@H]3C[C@@H](F)[C@H]2C1 [SV-2] | ≤ 1 | 100 to 500 | 100 to 500 | B (B > 20 min) | 50 to 100
Cc1nnn(CC(=O)[C@H]2CC[C@H]3[C@@H]4CC[C@@H]5C[C@](C)(O)CC[C@@H]5[C@H]4CC[C@]23C)n1 [SA-7] | ≤ 1 | > 500 | > 500 | B (B > 20 min) | 1 to 50
COC[C@@]1(O)CC[C@H]2[C@@H](CC[C@@H]3[C@@H]2CC[C@]2(C)[C@@H](C(=O)Cn4nnc(C)n4)CC[C@@H]32)C1 [SI-4] | ≤ 1 | 100 to 500 | 100 to 500 | B (B > 20 min) | –
